We go through 13 compounds from patent US10933063B2 (priority 2017, dated 2021).

Each structure is given as a SMILES string.

Chain of BTK (Q06187 whole entry, looked up, species assumed): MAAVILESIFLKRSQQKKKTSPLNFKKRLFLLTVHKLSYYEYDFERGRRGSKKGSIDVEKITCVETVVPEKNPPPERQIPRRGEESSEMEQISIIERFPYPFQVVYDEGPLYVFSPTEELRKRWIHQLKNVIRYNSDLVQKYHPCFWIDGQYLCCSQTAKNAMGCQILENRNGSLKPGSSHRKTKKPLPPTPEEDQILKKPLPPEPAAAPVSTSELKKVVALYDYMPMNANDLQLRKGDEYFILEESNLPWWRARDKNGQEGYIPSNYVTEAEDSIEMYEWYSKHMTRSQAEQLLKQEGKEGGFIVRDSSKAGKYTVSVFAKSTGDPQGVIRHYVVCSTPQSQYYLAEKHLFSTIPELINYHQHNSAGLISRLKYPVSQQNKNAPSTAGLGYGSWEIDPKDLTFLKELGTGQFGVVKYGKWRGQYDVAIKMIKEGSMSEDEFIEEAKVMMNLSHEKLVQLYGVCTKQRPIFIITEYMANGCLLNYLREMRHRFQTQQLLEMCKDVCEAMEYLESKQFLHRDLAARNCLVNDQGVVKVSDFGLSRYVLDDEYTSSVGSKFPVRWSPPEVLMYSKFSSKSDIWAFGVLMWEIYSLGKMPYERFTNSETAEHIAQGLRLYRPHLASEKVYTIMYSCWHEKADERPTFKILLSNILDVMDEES

This test concerns the target BTK (Homo sapiens (Human), UniProt Q06187). Nature of the test: biochemical.
The term IC50 denotes the concentration that inhibits the measured activity by half. Low values mean higher potency, high ones lower potency. `CC#CC(=O)N1CCCC[C@H]1c1nc(-c2ccc(OCc3cccc(F)c3F)cc2)c2c(C)nccn12` [Example 155, (S)-1-(2-(1-(4-((2,3-difluorobenzyl)oxy)phenyl)-8-methylimidazo[1,5-a]pyrazin-3-yl)piperidin-1-yl)but-2-yn-1-one] showed an IC50 of 100 to 1000 nM.
In turn, `COc1cccc(Oc2ccc(-c3nc([C@@H]4CCCN4C(=O)C(N)=O)n4ccncc34)cc2)c1F` [Example 33] registered a half-maximal inhibitory concentration (IC50) of 1000 to 10000 nM.
In the case of `CC#CC(=O)N1CCCC[C@H]1c1nc(-c2ccc(Oc3cccc(C)c3)cc2)c2c(C)nccn12` [Example 41, (S)-1-(2-(8-methyl-1-(4-(m-tolyloxy)phenyl)imidazo[1,5-a]pyrazin-3-yl)piperidin-1-yl)but-2-yn-1-one] it was 10 to 100 nM; in that of `C=CC(=O)N1CC[C@@H](c2nc(-c3ccc(C(=O)Nc4cc(C(F)(F)F)ccn4)cc3)c3cnccn23)C1` [Example 195, (R)-4-(3-(1-acryloylpyrrolidin-3-yl)imidazo[1,5-a]pyrazin-1-yl)-N-(4-(trifluoromethyl)pyridin-2-yl)benzamide], 10 to 100 nM.
In the case of `CC#CC(=O)N1CC[C@@H](c2nc(-c3ccc(Oc4cccc(OC)c4F)cc3)c3c(CF)nccn23)C1` [Example 120, (R)-1-(3-(1-(4-(2-fluoro-3-methoxyphenoxy)phenyl)-8-(fluoromethyl)imidazo[1,5-a]pyrazin-3-yl)pyrrolidin-1-yl)but-2-yn-1-one] it was 10 to 100 nM; in that of `CC#CC(=O)N1CC[C@@H](c2nc(-c3ccc(C(=O)Nc4ccccn4)cc3)c3c(C)ncc(C)n23)C1` [Example 183, (R)-4-(3-(1-(but-2-ynoyl)pyrrolidin-3-yl)-5,8-dimethylimidazo[1,5-a]pyrazin-1-yl)-N-(pyridin-2-yl)benzamide], 100 to 1000 nM; in that of `COc1cccc(Oc2ccc(-c3nc([C@@H]4CCCN(C(=O)C(N)=O)C4)n4ccncc34)cc2)c1F` [Example 3, (R)-2-(3-(1-(4-(2-fluoro-3-methoxyphenoxy)phenyl)imidazo[1,5-a]pyrazin-3-yl)piperidin-1-yl)-2-oxoacetamide], 1000 to 10000 nM.
For `CC#CC(=O)N1CCC[C@H]1c1nc(-c2ccc(COc3ccc(F)cc3)cc2)c2cnccn12` [Example 128, (S)-1-(2-(1-(4-((4-fluorophenoxy)methyl)phenyl)imidazo[1,5-a]pyrazin-3-yl)pyrrolidin-1-yl)but-2-yn-1-one] the value was 1000 to 10000 nM; for `C=CC(=O)N1CCCC[C@H]1c1nc(-c2ccc(C(=O)Nc3ccccn3)cc2)c2c(C)ncc(C)n12` [Example 188, (S)-4-(3-(1-acryloylpiperidin-2-yl)-5,8-dimethylimidazo [1,5-a]pyrazin-1-yl)-N-(pyridin-2-yl)benzamide], 10 to 100 nM; for `CC#CC(=O)N1CCC[C@H]1c1nc(-c2ccc(Oc3ccccc3)cc2Cl)c2cnccn12` [Example 14, (S)-1-(2-(1-(2-chloro-4-phenoxyphenyl)imidazo[1,5-a]pyrazin-3-yl)pyrrolidin-1-yl)but-2-yn-1-one], 1000 to 10000 nM.
`C=CC(=O)N1CCC[C@H]1c1nc(-c2ccc(Oc3cccc(F)c3)cc2)c2cnccn12` [Example 11, (S)-1-(2-(1-(4-(3-fluorophenoxy)phenyl)imidazo[1,5-a]pyrazin-3-yl)pyrrolidin-1-yl)prop-2-en-1-one] had an IC50 of 10 to 100 nM.
As for `CC#CN1CCC[C@H]1c1nc(-c2ccc(C(=O)Nc3cc(C(F)(F)F)ccn3)cc2)c2c(CF)nccn12` [Example 209, (S)-4-(8-(fluoromethyl)-3-(1-(prop-1-yn-1-yl)pyrrolidin-2-yl)imidazo [1,5-a]pyrazin-1-yl)-N-(4-(trifluoromethyl)pyridin-2-yl)benzamide], the half-inhibitory concentration (IC50) fell in the range of 100 to 1000 nM.
Regarding `COc1cccc(Oc2ccc(-c3nc([C@@H]4CCN(C(=O)/C(C#N)=C/C(C)(C)C)C4)n4ccnc(C)c34)cc2)c1F` [Example 88, (R,E)-2-(3-(1-(4-(2-fluoro-3-methoxyphenoxy)phenyl)-8-methylimidazo[1,5-a]pyrazin-3-yl)pyrrolidine-1-carbonyl)-4,4-dimethylpent-2-enenitrile], the IC50 lay within 10 to 100 nM.
